Columns and labels:
S. Epidermidis = test: Selective anti-bacterial test, count of germs after shaking culture with sample; type: cell-based; conditions: for S. Epidermidis (%) count of germs: count of germs in control group without sample defined as 100%, shaking culture at 32° C. for one day; for change in the count of S. Epidermidis (in words): summary of Table 1
Experimental: (§1) Each sample was added to an aqueous solution of 1% peptone and sterilized. 20 μl/ml of a test germ solution was injected into the sample-containing sterilized aqueous solution of peptone and then subjected to shaking culture at 32° C. for one day. The test germs selected were P. acnes known as present in the skin and harmful to the skin and S. Epidermidis known as relatively harmless to the skin. The solution after the shaking culture was diluted to 1/100 with normal diluting water. 0.1 ml of the diluted solution was placed on a Petri dish and then […]. To the diluted solution was poured TS agar cooled down to about 50° C. The Petri dish hardened with the TS agar was subjected to anaerobic culture at 35° C. for one day to measure the count of the germs. The P. acnes group was subjected to anaerobic culture at 35° C. for one day and then diluted to 1/100 with normal diluting water. 0.1 ml of the diluted solution was placed on a Petri dish, hardened with BHI agar, and subjected to anaerobic culture at 35° C. for 3 days to count the germs. As comparative groups, theanine and maltose were used for the testing. The count of germs in the control group without containing the sample was defined as 100%.

[1] = Primary skin irritation test (closed patch test); type: in vivo, human; conditions: for Extent of Skin Irritation: average score on scale 0 (None) to 4 (Extreme), aqueous solution, closed patch on lower arm, 20 subjects, after one day; for safety to the skin (in words): summary of Table 3
From the text: An aqueous solution of each theanine derivative of examples 1, 2 and 3 was applied on the lower part of the arm of 20 healthy male and female subjects according to the closed patch test method. The arm was covered with a plastic cap to block external stimuli. All numeral designations in Table 3 are averages of the irritations calculated according to the evaluation method of Table 2. [table]

P. acnes = test: Selective anti-bacterial test, count of germs after shaking culture with sample; type: cell-based, Propionibacterium acnes; conditions: for P. acnes (%) count of germs: count of germs in control group without sample defined as 100%, shaking culture at 32° C. for one day; for change in the count of P. acnes (in words): summary of Table 1
Experimental: as §1

| Structure (SMILES) | S. Epidermidis (%) count of germs (S. Epidermidis) | change in the count of S. Epidermidis (in words) (S. Epidermidis) | Extent of Skin Irritation [1] | safety to the skin (in words) [1] | P. acnes (%) count of germs (P. acnes) | change in the count of P. acnes (in words) (P. acnes) |
| --- | --- | --- | --- | --- | --- | --- |
| CCNC(=O)CC[C@H](NCC1(O)OC[C@@H](O)C(O[C@H]2O[C@H](CO)[C@@H](O)[C@H](O)[C@H]2O)[C@@H]1O)C(=O)O (stereo partly shown) [Example 1, Maltulosyl Theanine] | 83% | no significant change | 0.1 | safe to the skin | 9% | reduced count |
| OC[C@H]1O[C@H](O[C@H]2[C@H](O)[C@@H](O)C(O)O[C@@H]2CO)[C@H](O)[C@@H](O)[C@@H]1O (mixture of isomers) [Maltose, maltose, reference compound] | 89% |  |  |  | 110% |  |
| CCN(CC)C(=O)CC[C@H](NCC1(O)OC[C@@H](O)C(O[C@H]2O[C@H](CO)[C@@H](O)[C@H](O)[C@H]2O)[C@@H]1O)C(=O)O (stereo partly shown) [Example 3, Maltulosyl N-Ethyl Theanine] | 86% | no significant change | 0.1 | safe to the skin | 15% | reduced count |
| CCNC(=O)CC[C@H](N)C(=O)O [Theanine, theanine] | 98% |  |  |  | 50% |  |
| CCNC(=O)CC[C@H](NCC1(O)OC[C@@H](O)C(O[C@H]2O[C@H](CO)[C@@H](O)[C@H](O)[C@H]2O)[C@@H]1O)C(=O)OC (stereo partly shown) [Example 2, Maltulosyl Theanine Methyl Ester] | 93% | no significant change | 0.2 | safe to the skin | 27% | reduced count |

From patent US8557793B2, “Theanine derivative, preparation method thereof, and use thereof for alleviating acne” (Amorepacific Corporation, priority 2010, dated 2013)
